Laboratory results: patent publication US6525059B1, “Substituted pyrazoles as p38 kinase inhibitors” (G. D. Searle & Company, priority 1998, dated 2003)

Assays:
human p38 kinase alpha = target: T1, human p38 kinase alpha (Homo sapiens, UniProt Q16539); experiment: p38 kinase in vitro assay, phosphorylation of biotinylated PHAS-I with gamma 32P-ATP; format: biochemical; conditions: read-out: P38 alpha kinase IC50
T1 construct: The coding region of the human p38a cDNA was obtained by PCR-amplification from RNA isolated from the human monocyte cell line THP.1; GST (N); made in house; host or cells: E. coli DH10B
Procedure, shortened: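 Radiometric filter-capture read-out: streptavidin plates trap biotin-PHAS-I labelled by activated (MKK6) human p38α from γ-32P-ATP. Buffer 25 mM HEPES pH 7.5, 10 mM magnesium acetate, 50 μM cold ATP; reactions 1 h or overnight at 30 °C; inhibitors 10-fold dilutions 100 to 0.001 μM, triplicates, 1% DMSO.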

TNF-α = experiment: LPS stimulation of TNF production by U937 cells; format: cell-based, human; conditions: for inhibition at 1 µM / IC50: Homo sapiens; for inhibition at 1 µM: U-937, @ 1.0 uM, read-out: U937 Cell % inhib @ conc.; for IC50: U-937, TNF production, LPS-stimulated human U937 cells, read-out: U937 Cell IC50
Procedure, shortened: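 PMA-differentiated human U937 cells (20 ng/ml PMA, 24 h, then 24-48 h rest) at 2 million cells/ml, 0.1% DMSO final, stimulated with E. coli LPS (100 ng/ml final) for 4 h at 37° C. TNF-α in medium measured by ELISA; IC50 in μM.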

T1 sequence (Q16539 whole entry): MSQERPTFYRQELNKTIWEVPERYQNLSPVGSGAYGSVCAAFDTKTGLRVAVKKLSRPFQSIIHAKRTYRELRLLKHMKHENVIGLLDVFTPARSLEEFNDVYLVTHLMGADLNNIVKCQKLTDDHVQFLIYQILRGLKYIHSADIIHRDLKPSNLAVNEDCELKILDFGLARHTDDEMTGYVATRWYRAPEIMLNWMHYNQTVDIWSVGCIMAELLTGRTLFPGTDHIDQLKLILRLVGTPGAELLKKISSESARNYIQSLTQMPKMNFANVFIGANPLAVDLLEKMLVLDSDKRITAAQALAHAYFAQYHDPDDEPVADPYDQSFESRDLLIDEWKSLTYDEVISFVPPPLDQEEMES

SMILES | IC50 (human p38 kinase alpha) [nM] | IC50 (TNF-α) [nM] | inhibition at 1 µM (TNF-α) [%] | U937 Cell % inhib @ conc. (TNF-α; @ 1.0 uM) [% @ 1.0 uM]
CC(=O)OC(C)(C)C(=O)N[C@H](C)c1[nH]nc(-c2ccc(F)cc2)c1-c1ccncc1 [Example B-0358] | 370 | – | 17 | –
C[C@@H](NC(=O)C1CCC1)c1[nH]nc(-c2ccc(F)cc2)c1-c1ccncc1 [Example B-0360] | 1600 | – | 19 | –
C[C@@H](NC(=O)c1cccc(Br)c1)c1[nH]nc(-c2ccc(F)cc2)c1-c1ccncc1 [Example B-0362] | 520 | – | 27 | –
C[C@@H](NC(=O)c1ccc(I)cc1)c1[nH]nc(-c2ccc(F)cc2)c1-c1ccncc1 [Example B-0363] | 4670 | – | 25 | –
C[C@@H](NC(=O)c1ccno1)c1[nH]nc(-c2ccc(F)cc2)c1-c1ccncc1 [Example B-0364] | 1440 | – | 27 | –
CC(=O)O[C@@H](C)C(=O)N[C@H](C)c1[nH]nc(-c2ccc(F)cc2)c1-c1ccncc1 [Example B-0365] | 960 | – | 27 | –
COc1ccccc1C(=O)N[C@H](C)c1[nH]nc(-c2ccc(F)cc2)c1-c1ccncc1 [Example B-0367] | 1000 | – | 23 | –
CC(C)=CC(=O)N[C@H](C)c1[nH]nc(-c2ccc(F)cc2)c1-c1ccncc1 [Example B-0370] | 650 | – | 28 | –
COc1ccc(CC(=O)N[C@H](C)c2[nH]nc(-c3ccc(F)cc3)c2-c2ccncc2)cc1 [Example B-0372] | 350 | – | 29 | –
COc1cccc(CC(=O)N[C@H](C)c2[nH]nc(-c3ccc(F)cc3)c2-c2ccncc2)c1 [Example B-0373] | 450 | – | 18 | –
Cc1ccc(C(=O)N[C@H](C)c2[nH]nc(-c3ccc(F)cc3)c2-c2ccncc2)cc1 [Example B-0374] | 1380 | – | – | 12.0
C[C@@H](NC(=O)c1ccccc1)c1[nH]nc(-c2ccc(F)cc2)c1-c1ccncc1 [Example B-0375] | 1000 | – | 19 | –
C[C@@H](NC(=O)C1CCCC1)c1[nH]nc(-c2ccc(F)cc2)c1-c1ccncc1 [Example B-0376] | 2990 | – | 12 | –
C[C@@H](NC(=O)c1cccnc1)c1[nH]nc(-c2ccc(F)cc2)c1-c1ccncc1 [Example B-0377] | 1290 | – | 36 | –
CC(C)COC(=O)N[C@H](C)c1[nH]nc(-c2ccc(F)cc2)c1-c1ccncc1 [Example B-0382] | 410 | – | 32 | –
Cc1ccc(S(=O)(=O)N[C@@H](Cc2ccccc2)C(=O)N[C@H](C)c2[nH]nc(-c3ccc(F)cc3)c2-c2ccncc2)cc1 [Example B-0383] | 1430 | – | 10 | –
CC(C)S(=O)(=O)N[C@H](C)c1[nH]nc(-c2ccc(F)cc2)c1-c1ccncc1 [Example B-0387] | 410 | – | 52 | –
C[C@@H](NS(=O)(=O)c1ccc(F)cc1F)c1[nH]nc(-c2ccc(F)cc2)c1-c1ccncc1 [Example B-0390] | 89 | – | 55 | –
C[C@@H](NS(=O)(=O)C(F)(F)F)c1[nH]nc(-c2ccc(F)cc2)c1-c1ccncc1 [Example B-0391] | 860 | – | 18 | –
CCS(=O)(=O)N[C@H](C)c1[nH]nc(-c2ccc(F)cc2)c1-c1ccncc1 [Example B-0395] | 87 | – | 48 | –
C[C@@H](NS(C)(=O)=O)c1[nH]nc(-c2ccc(F)cc2)c1-c1ccncc1 [Example B-0396] | 97 | 440 | – | –
Cc1ccc(S(=O)(=O)N[C@H](C)c2[nH]nc(-c3ccc(F)cc3)c2-c2ccncc2)cc1 [Example B-0399] | 140 | – | 39 | –
COc1ccc(S(=O)(=O)N[C@H](C)c2[nH]nc(-c3ccc(F)cc3)c2-c2ccncc2)cc1OC [Example B-0400] | 160 | – | 25 | –
CC(C)NC(=O)N[C@H](C)c1[nH]nc(-c2ccc(F)cc2)c1-c1ccncc1 [Example B-0401] | 460 | – | 52 | –
C[C@@H](NC(N)=O)c1[nH]nc(-c2ccc(F)cc2)c1-c1ccncc1 [Example B-0402] | 140 | 1510 | – | –
C[C@@H](NC(=O)NCc1ccccc1)c1[nH]nc(-c2ccc(F)cc2)c1-c1ccncc1 [Example B-0403] | 1770 | 2420 | – | –
C[C@@H](NC(=O)N1CCCC1)c1[nH]nc(-c2ccc(F)cc2)c1-c1ccncc1 [Example B-0404] | 310 | – | 48 | –
C[C@@H](NC(=O)N1CCOCC1)c1[nH]nc(-c2ccc(F)cc2)c1-c1ccncc1 [Example B-0405] | 790 | – | 30 | –

Second part, led by results:

IC50 (human p38 kinase alpha) [nM] | IC50 (TNF-α) [nM] | SMILES | inhibition at 1 µM (TNF-α) [%] | U937 Cell % inhib @ conc. (TNF-α; @ 1.0 uM) [% @ 1.0 uM]
540 | – | C[C@@H](NC(=O)Nc1ccc(F)cc1)c1[nH]nc(-c2ccc(F)cc2)c1-c1ccncc1 [Example B-0406] | 35 | –
760 | – | C[C@@H](NC(=O)N(C)C)c1[nH]nc(-c2ccc(F)cc2)c1-c1ccncc1 [Example B-0407] | 27 | –
500 | – | CNC(=O)N[C@H](C)c1[nH]nc(-c2ccc(F)cc2)c1-c1ccncc1 [Example B-0408] | 50 | –
620 | – | Cc1cccc(C)c1NC(=O)N[C@H](C)c1[nH]nc(-c2ccc(F)cc2)c1-c1ccncc1 [Example B-0411] | 50 | –
240 | – | C=CCNC(=O)N[C@H](C)c1[nH]nc(-c2ccc(F)cc2)c1-c1ccncc1 [Example B-0412] | 48 | –
180 | – | CCCNC(=O)N[C@H](C)c1[nH]nc(-c2ccc(F)cc2)c1-c1ccncc1 [Example B-0413] | 55 | –
540 | – | C[C@@H](NC(=O)N[C@H](C)c1[nH]nc(-c2ccc(F)cc2)c1-c1ccncc1)c1ccccc1 [Example B-0414] | 25 | –
220 | – | C[C@@H](NC(=O)Nc1cccc(F)c1)c1[nH]nc(-c2ccc(F)cc2)c1-c1ccncc1 [Example B-0418] | 27 | –
180 | – | C[C@@H](NC(=O)Cc1cccs1)c1[nH]nc(-c2ccc(F)cc2)c1-c1ccncc1 [Example B-0423] | 33 | –
83 | – | C[C@@H](NC(=O)C(C)(C)C)c1[nH]nc(-c2ccc(F)cc2)c1-c1ccncc1 [Example B-0424] | 32 | –
260 | – | CCCOC(=O)N[C@H](C)c1[nH]nc(-c2ccc(F)cc2)c1-c1ccncc1 [Example B-0425] | 54 | –
630 | – | C[C@@H](NC(=O)[C@H]1CCCN1)c1[nH]nc(-c2ccc(F)cc2)c1-c1ccncc1 [Example B-0427] | 39 | –
270 | – | CC(C)OC(=O)N[C@H](C)c1[nH]nc(-c2ccc(F)cc2)c1-c1ccncc1 [Example B-0429] | 45 | –
210 | – | CC(=O)Nc1ccc(S(=O)(=O)N[C@H](C)c2[nH]nc(-c3ccc(F)cc3)c2-c2ccncc2)cc1 [Example B-0431] | 64 | –
120 | – | CC(NS(=O)(=O)CC12CCC(CC1=O)C2(C)C)c1[nH]nc(-c2ccc(F)cc2)c1-c1ccncc1 (centres unmarked) [Example B-0434] | 65 | –
2120 | – | Cc1cc(C)c(S(=O)(=O)N[C@H](C)c2[nH]nc(-c3ccc(F)cc3)c2-c2ccncc2)c(C)c1 [Example B-0439] | 65 | –
800 | – | C[C@@H](NS(=O)(=O)c1cccc2ccccc12)c1[nH]nc(-c2ccc(F)cc2)c1-c1ccncc1 [Example B-0441] | 58 | –
2010 | – | C[C@@H](NS(=O)(=O)c1cccc2cccnc12)c1[nH]nc(-c2ccc(F)cc2)c1-c1ccncc1 [Example B-0443] | 71 | –
780 | – | CC(C)c1ccc(S(=O)(=O)N[C@H](C)c2[nH]nc(-c3ccc(F)cc3)c2-c2ccncc2)cc1 [Example B-0446] | 80 | –
190 | – | Cc1c(Cl)cccc1S(=O)(=O)N[C@H](C)c1[nH]nc(-c2ccc(F)cc2)c1-c1ccncc1 [Example B-0447] | 71 | –
830 | – | C[C@@H](NS(=O)(=O)c1ccc(F)cc1Cl)c1[nH]nc(-c2ccc(F)cc2)c1-c1ccncc1 [Example B-0449] | 81 | –
260 | – | C[C@@H](NS(=O)(=O)c1ccccc1C#N)c1[nH]nc(-c2ccc(F)cc2)c1-c1ccncc1 [Example B-0450] | 81 | –
700 | – | C[C@@H](NS(=O)(=O)c1cc(Cl)c(Cl)s1)c1[nH]nc(-c2ccc(F)cc2)c1-c1ccncc1 [Example B-0452] | 75 | –
470 | – | C[C@@H](NS(=O)(=O)c1c(Cl)cccc1Cl)c1[nH]nc(-c2ccc(F)cc2)c1-c1ccncc1 [Example B-0453] | 75 | –
1810 | – | CCCCOc1ccc(S(=O)(=O)N[C@H](C)c2[nH]nc(-c3ccc(F)cc3)c2-c2ccncc2)cc1 [Example B-0456] | 67 | –
89 | – | COc1ccc(OC)c(S(=O)(=O)N[C@H](C)c2[nH]nc(-c3ccc(F)cc3)c2-c2ccncc2)c1 [Example B-0457] | 81 | –
33 | – | C[C@@H](NS(=O)(=O)c1ccccc1C(F)(F)F)c1[nH]nc(-c2ccc(F)cc2)c1-c1ccncc1 [Example B-0458] | 70 | –
